Measurements from US20260151518A1, “LEUKOCYTE-SPECIFIC CELL PENETRATING MOLECULES” (Amytrx Therapeutics, Inc., priority 2021, published 2026).

How the values were obtained:
[1] = Concentrations of radioactivity in whole blood, plasma, WBC depleted blood and recovered white blood cells after single subcutaneous administration of [3H]-AMTX-100; type: in vivo, rat; parameters: key to Concentration of radioactivity in Recovered White Blood Cells: BLQ: Below limit of accurate quantification; conditions: 5 mg/kg; for Concentration of radioactivity in WBC depleted blood / Concentration of radioactivity in Whole Blood / Concentration of radioactivity in Plasma / Concentration of radioactivity in Recovered White Blood Cells: rat; for Concentration of radioactivity in Plasma: plasma not depleted of white blood cells; for Concentration of radioactivity in Recovered White Blood Cells: reverse wash of filters; for Cmax, total radioactivity: male non-pigmented rats
Procedure: [^3H]-NSP labelling. For the main phase of the study, the test protein was prepared, radiolabeled with N-succinimidyl-[2,3-3H]-propionate ([^3H]-NSP) and purified as described below.
Three aliquots of 1.6 mL [^3H]-NSP solution were dispensed into appropriate vials. The solvent was evaporated under a gentle stream of nitrogen gas at ambient temperature. Once enough of the solvent had been evaporated, the three aliquots were combined into one vial and the remaining solvent evaporated until dryness. The residue in the vial was re-suspended in 0.6 mL of 1 mg/mL AMTX-100 by gently vortex mixing to ensure complete mixing of the protein with the labelling reagent. The solutions were allowed to stand at ambient temperature for approximately 1 hour.
The [^3H]-NSP-protein solutions were then purified by reverse phase chromatography techniques and the resulting solution was frozen and lyophilized using a freeze drier. The resulting material was dissolved in 2 mL ethanol:water (50:50) and stored at approximately −20° C. prior to formulation for dose preparation.
Formulation. The required quantities of each radiolabeled test item were combined with the corresponding non-labelled test item as appropriate to achieve a radioactive concentration sufficient to meet the aims of the study. Dose solutions were prepared in PBS buffer pH 7.4, with the intention of administering a total dose volume of […], (2.5 ml/kg, […]).
Whole blood was collected into tubes containing K2-EDTA as anticoagulant. Following collection, an aliquot of whole blood (approximately 4 mL) was retained for analysis of whole blood and white blood cell (WBC) concentrations. The remaining whole blood samples were processed to plasma. Plasma samples were not depleted of white blood cells.
(§1) AMTX-100 was radiolabeled with 3H at lysine residues and injected into Sprague-Dawley rats in a single dose by seven different routes (intravenous, subcutaneous, topical [skin], intratracheal, intraduodenal, esophageal, and oral). The rats were evaluated at various time points, up to 120 hours, by: a) blood samples were taken for pharmacokinetics (PK) by cardiac puncture; b) rats were frozen and sectioned for QWBA and/or micro-auto-radiography and histology; and c) frozen sections were made and freeze dried and exposed to phosphor-storage imaging plates and tissue radioactivity in images was quantified as tissue: blood ratios.
(§2) For all PK studies, the following definitions were used: WB=whole blood; Plasma=whole blood depleted of red blood cells; WBCD=whole blood depleted of white blood cells in which the whole blood is passed over a Pall Acrodisc filter (about 60% efficient); WBCs=the cells which bind to, and are washed off, the Pall Acrodisc filter.

[2] = Pharmacokinetics of [3H]-AMTX-100 after multiple routes of administration; type: in vivo, rat; conditions: rat
Procedure: as §1, §2

With `CSCC[C@@H]1NC(=O)[C@H](CC(C)C)NC(=O)[C@H](CCCCN)NC(=O)[C@H](CCC(N)=O)CC(=O)[C@H](CCCNC(=N)N)NC(=O)[C@H](CCCCN)NC(=O)[C@H](CCCNC(=N)N)NC(=O)[C@H](CCC(N)=O)NC(=O)[C@H](C(C)C)NC(=O)[C@@H](NC(=O)[C@@H]2CCCN2C(=O)[C@H](C)NC(=O)[C@H](CC(C)C)NC(=O)[C@H](CC(C)C)NC(=O)[C@H](C)NC(=O)[C@H](CC(C)C)NC(=O)[C@H](CC(C)C)NC(=O)[C@@H](NC(=O)[C@H](C)NC(=O)[C@@H]2CCCN2C(=O)[C@H](CC(C)C)NC(=O)[C@H](CC(C)C)NC(=O)[C@H](C)NC(=O)[C@@H](NC(=O)[C@H](C)NC(=O)[C@H](C)N)C(C)C)C(C)C)CSSC[C@@H](C(=O)O)NC(=O)[C@@H]2CCCN2C1=O` [[^3H]-AMTX-100] the “Concentration of radioactivity in WBC depleted blood” value ([1]; 1 h) was 0.015 μg equivalents/mL, the “Concentration of radioactivity in Whole Blood” value (shortened to “Concentration … in Whole Blood”) ([1]; 1 h) was 0.081 μg equivalents/mL and the “Concentration of radioactivity in Plasma” value ([1]; 1 h) was 0.110 μg equivalents/mL. The “Concentration of radioactivity in Recovered White Blood Cells” value ([1]; 1 h) was “BLQ”, the “Concentration of radioactivity in WBC depleted blood” value ([1]; 2 h) was 0.011 μg equivalents/mL and the “Concentration … in Whole Blood” value ([1]; 2 h) was 0.059^3 μg equivalents/mL. The “Concentration of radioactivity in Plasma” value ([1]; 2 h) was 0.084 μg equivalents/mL, the “Concentration of radioactivity in Recovered White Blood Cells” value ([1]; 2 h) was “BLQ” and the “Concentration of radioactivity in WBC depleted blood” value ([1]; 4 h) was 0.011 μg equivalents/mL. The “Concentration … in Whole Blood” value ([1]; 4 h) was 0.054 μg equivalents/mL, the “Concentration of radioactivity in Plasma” value ([1]; 4 h) was 0.068 μg equivalents/mL and the “Concentration of radioactivity in Recovered White Blood Cells” value ([1]; 4 h) was “BLQ”. The “Concentration of radioactivity in WBC depleted blood” value ([1]; 8 h) was 0.011 μg equivalents/mL, the “Concentration … in Whole Blood” value ([1]; 8 h) was 0.070 μg equivalents/mL and the “Concentration of radioactivity in Plasma” value ([1]; 8 h) was 0.090 μg equivalents/mL. For the same compound, the “Concentration of radioactivity in Recovered White Blood Cells” value ([1]; 8 h) was “BLQ”, the Concentration of radioactivity in WBC depleted blood ([1]; 24 h) was 0.021 μg equivalents/mL and the “Concentration … in Whole Blood” value ([1]; 24 h) was 0.120 μg equivalents/mL. For the same compound, the “Concentration of radioactivity in Plasma” value ([1]; 24 h) was 0.146 μg equivalents/mL, the “Concentration of radioactivity in Recovered White Blood Cells” value ([1]; 24 h) was “BLQ” and the “Concentration of radioactivity in WBC depleted blood” value ([1]; 48 h) was 0.033 μg equivalents/mL. The “Concentration … in Whole Blood” value ([1]; 48 h) was 0.186 μg equivalents/mL, the “Concentration of radioactivity in Plasma” value ([1]; 48 h) was 0.221 μg equivalents/mL and the “Concentration of radioactivity in Recovered White Blood Cells” value ([1]; 48 h) was “BLQ”. The “Cmax, total radioactivity” value ([1]; Plasma) was 221 ng/mL, the “Cmax, total radioactivity” value ([1]; WBCD blood) was 33 ng/mL and the “Cmax, total radioactivity” value ([1]; Whole blood) was 186 ng/mL. For the same compound, the “Specific target cells in blood” value [2] was “WBCs and not RBCs are the specific target”, the “Residence time in plasma” value ([2]; Sub-Q, single dose) was greater than 672 h and the Presence in tissue ([2]; after a single dose) was “found in tissue in which WBCs congregate, but not cardiac or skeletal muscle tissue”. The “Entry into the bloodstream” value ([2]; all routes of administration) was “by all routes of administration makes its way into the bloodstream” and the Resistance to degradation ([2]; esophageal administration, L-amino acid version) was “resistant to degradation”.
